Assay results taken from US20120028284A1, “TRAPPING COMPOUNDS AND METHOD FOR IDENTIFYING REACTIVE METABOLITES” (EISAI R&D MANAGEMENT CO., LTD., priority 2009, published 2012).

Experiments:
[1] = Trapping of acylglucuronides by incubation with compound of formula (I) in buffer, neutral loss LC-MS/MS; conditions: 100 μM diclofenac acylglucuronide, pH7.4 buffer, 60 min, 37° C.
Description: The resulting mixtures were pre-warmed at 37° C. for 5 min.
(§1) MS analyses were performed on an LTQ Orbitrap FTMS (Thermo Fisher Scientific, Inc., Bremen, Germany). The ESI ion source was operated in the positive ion mode. The entire eluent was sprayed into the mass spectrometer at +5 kV and desolvation of the solvent droplets was further aided by a heated capillary temperature of 350° C. Mass spectra collected in the neutral loss scanning mode were obtained by scanning over the range m/z 200-1100 at 30000 resolution.
For complete profiling of reactive metabolites, samples were first subjected to chromatographic separations with a Prominence LC system with an auto-sampler (Shimadzu Corp., Kyoto, Japan) and eluents were introduced to the LTQ Orbitrap FTMS operated in the neutral loss scanning mode. […] The solvent composition was then held at 100% B for 8 min before re-equilibration at initial conditions. […] Data acquisition was carried out using the Xcaliber version 2.0 software (Thermo Fisher Scientific, Inc., Bremen, Germany).

[2] = tested on: human liver microsomal preparations (cytochrome P450 enzyme preparations); assay: Trapping of "soft" and "hard" reactive metabolites in microsomal incubations with compound of formula (I), neutral loss LC-MS/MS; type: in vitro ADME; conditions: 50 μM test compound, 2 mg/ml microsomal proteins, 3 mM NADPH, 37° C.; for adducts of reactive metabolites with ECHK detected: trapping agent ECHK 1 mM; for adducts of reactive metabolites with ECHK detected / adducts of reactive metabolites with EHCK detected: neutral loss scanning of 129 Da; for adducts of reactive metabolites with ECO detected: trapping agent ECO 1 mM, neutral loss scanning of 129 Da or 147 Da; for adducts of reactive metabolites with EHCK detected: trapping agent EHCK 1 mM
Description: All microsomal incubations described herein were performed at 37° C. in a water bath or on a heat block. The test compound was mixed with human liver microsomal preparations (cytochrome P450 enzyme preparations) in 100 mM potassium phosphate buffer (pH7.4) including 0.1 mM EDTA and the compound of formula (I). The resulting mixtures were pre-warmed at 37° C. for 5 min. To the reaction mixtures was then added the co-factor-NADPH (to initiate the reaction) to yield a final volume of 500 μl.
The resulting reaction mixtures contained 50 μM test compounds, 2 mg/ml microsomal proteins, 1 mM mixture of compound of formula (I) and 3 mM NADPH.
After 15 or 60 min incubation, the reactions were terminated by the addition of 1000 μl of 50% methanol/50% acetonitrile. The resulting mixtures were centrifuged at 10,000 g for 10 min at 4° C. to pellet the precipitated protein, and the supernatants were dried up. The resulting residue was solubilized with 50% methanol.
as §1
For complete profiling of reactive metabolites, samples were first subjected to chromatographic separations with a Prominence LC system with an auto-sampler (Shimadzu Corp., Kyoto, Japan) and eluents were introduced to the LTQ Orbitrap FTMS operated in the neutral loss scanning mode. An L-column ODS (Octadecylsilyl-silica gels; 2.1×150 mm, Chemicals Evaluation and Research Institute, Tokyo, Japan) was used for the chromatographic separation. The chromatographic system used a binary solvent system delivered as a gradient of solvent A (5 mM ammonium acetate) and solvent B (95% acetonitrile included 5 mM ammonium acetate). […] The solvent composition was then held at 100% B for 8 min before re-equilibration at initial conditions. LC-MS/MS analyses were carried out on 20 μl aliquots of cleaned samples. Data acquisition was carried out using the Xcaliber version 2.0 software (Thermo Fisher Scientific, Inc., Bremen, Germany).

Row | SMILES | adduct of acylglucuronide with ECHK detected ([1]; trapping agent ECHK 1 mM, neutral loss scanning of 129 Da) | adduct of acylglucuronide with ECO detected ([1]; trapping agent ECO 1 mM, neutral loss scanning of 129 Da and 147 Da) | adduct of acylglucuronide with EHCK detected ([1]; trapping agent EHCK 1 mM, neutral loss scanning of 129 Da) | adducts of reactive metabolites with ECHK detected [2] | adducts of reactive metabolites with ECO detected [2] | adducts of reactive metabolites with EHCK detected [2]
1 | O=C(Cc1ccccc1Nc1c(Cl)cccc1Cl)O[C@@H]1O[C@H](C(=O)O)[C@@H](O)[C@H](O)[C@H]1O [diclofenac acylglucuronide, Diclofenac acylglucuronide] | adduct of diclofenac acylglucuronide with ECHK which was detected | adduct of diclofenac acylglucuronide with ECO which was detected | adduct of diclofenac acylglucuronide with EHCK which was detected | – | – | –
2 | O=C(O)Cc1ccccc1Nc1c(Cl)cccc1Cl [diclofenac, Diclofenac] | – | – | – | two adducts | two adducts | two adducts
3 | c1coc(-c2cccs2)c1 [2-[2-thienyl]-furan, 2-[2-Thienyl]-furan] | – | – | – | three adducts | three adducts | three adducts
